The nature of series [1]: Inhibition of NDM-1 (unknown origin) relative to control. On the set-up: concentration or dose not given beside the values. The conditions noted are these: Bacteria; concentration not given here.
The nature of series [2]: Inhibition of Pseudomonas aeruginosa Metallo-beta-lactamase VIM-2.
The nature of series [3]: Therapeutic index, ratio of CC50 for HEK293 cells to EC50 for Escherichia coli expressing VIM-2. Type of series: toxicity. Particulars: human, read-out: Ratio CC50/EC50.
The subject of another series is Pseudomonas aeruginosa. Briefly: Inhibition of Pseudomonas aeruginosa Metallo-beta-lactamase VIM-2 at 50 uM relative to control.
The subject of a further series is Glycine max. Briefly: Inhibition of soybean 5-LOX relative to control.
In series [4] the target is T1, Mushroom tyrosinase (Agaricus bisporus) (UniProt O42713+Q00024+C7FF04+C7FF05). The experiment in a line: Inhibition of mushroom monophenolase activity using L-DOPA as substrate preincubated with substrate followed by compound addition by Lineweaver-burk reciprocal plot analysis.
In series [5] the target is T2, Stromelysin-1 (Homo sapiens, UniProt P08254). Briefly: Inhibition of human MMP-3 at 100 uM relative to control.
Target sequence in this assay (P08254 100-477 limits assumed): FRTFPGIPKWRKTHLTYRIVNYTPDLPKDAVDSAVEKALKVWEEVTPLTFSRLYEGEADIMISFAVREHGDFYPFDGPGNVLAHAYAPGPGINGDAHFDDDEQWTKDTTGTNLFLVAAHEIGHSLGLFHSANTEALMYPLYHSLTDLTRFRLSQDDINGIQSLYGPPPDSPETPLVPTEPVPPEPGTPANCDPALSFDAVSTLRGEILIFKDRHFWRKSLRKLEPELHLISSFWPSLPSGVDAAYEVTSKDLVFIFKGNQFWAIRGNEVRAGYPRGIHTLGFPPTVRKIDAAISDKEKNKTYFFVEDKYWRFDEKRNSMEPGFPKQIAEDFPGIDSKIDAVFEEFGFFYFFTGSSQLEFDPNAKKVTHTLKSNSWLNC
In series [6] the target is Interstitial collagenase (Homo sapiens) (UniProt P03956). The experiment in a line: Inhibition of human MMP-1 at 100 uM relative to control.
Series [7] has as its target T3, Mushroom tyrosinase (Agaricus bisporus, UniProt O42713+Q00024+C7FF04+C7FF05). Briefly: Inhibition of mushroom monophenolase activity by Lineweaver-burk reciprocal plot analysis.
Series [8] has as its target T1, Mushroom tyrosinase (Agaricus bisporus). Briefly: Inhibition of mushroom Diphenolase activity using L-DOPA as substrate preincubated with substrate followed by compound addition by Lineweaver-burk reciprocal plot analysis.
Series [9] concerns the target T3, Mushroom tyrosinase. The experiment in a line: Inhibition of mushroom monophenolase.
Series [10] has as its target T3, Mushroom tyrosinase. The experiment in a line: Inhibition of mushroom diphenolase.
The target of series [11] is T3, Mushroom tyrosinase. Briefly: Inhibition of mushroom Diphenolase activity by Lineweaver-burk reciprocal plot analysis.
The target in series [12] is Polymerase acidic protein (Influenza A virus (A/Puerto Rico/8/1934(H1N1))) (UniProt P03433). Briefly: Inhibition of Influenza A virus N-terminal domain of PA endonuclease relative to control. The conditions noted are these: concentration not given here.
For a further series, the target named is Neutrophil collagenase (Homo sapiens, UniProt P22894). The experiment in a line: Inhibition of human MMP-8.
The target of series [13] is T2, Stromelysin-1. The experiment in a line: Inhibition of human MMP-3.
Target sequence in this assay (P08254 whole entry): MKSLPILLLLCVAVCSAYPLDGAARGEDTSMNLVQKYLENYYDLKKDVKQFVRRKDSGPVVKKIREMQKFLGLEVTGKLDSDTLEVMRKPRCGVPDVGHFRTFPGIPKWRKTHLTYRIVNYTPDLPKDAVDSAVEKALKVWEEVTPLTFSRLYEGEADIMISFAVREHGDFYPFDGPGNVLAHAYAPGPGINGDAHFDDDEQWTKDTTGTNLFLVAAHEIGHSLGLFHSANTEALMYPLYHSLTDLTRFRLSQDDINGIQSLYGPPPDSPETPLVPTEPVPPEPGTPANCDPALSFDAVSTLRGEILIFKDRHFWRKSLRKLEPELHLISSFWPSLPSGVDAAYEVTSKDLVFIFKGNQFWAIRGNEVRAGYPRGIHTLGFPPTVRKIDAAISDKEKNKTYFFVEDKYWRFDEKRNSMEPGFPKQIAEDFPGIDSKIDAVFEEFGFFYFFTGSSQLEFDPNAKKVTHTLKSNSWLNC
Series [14] deals with T4, Macrophage metalloelastase (Homo sapiens, UniProt P39900). The experiment in a line: Inhibition of human MMP-12.
Target sequence in this assay (P39900 whole entry): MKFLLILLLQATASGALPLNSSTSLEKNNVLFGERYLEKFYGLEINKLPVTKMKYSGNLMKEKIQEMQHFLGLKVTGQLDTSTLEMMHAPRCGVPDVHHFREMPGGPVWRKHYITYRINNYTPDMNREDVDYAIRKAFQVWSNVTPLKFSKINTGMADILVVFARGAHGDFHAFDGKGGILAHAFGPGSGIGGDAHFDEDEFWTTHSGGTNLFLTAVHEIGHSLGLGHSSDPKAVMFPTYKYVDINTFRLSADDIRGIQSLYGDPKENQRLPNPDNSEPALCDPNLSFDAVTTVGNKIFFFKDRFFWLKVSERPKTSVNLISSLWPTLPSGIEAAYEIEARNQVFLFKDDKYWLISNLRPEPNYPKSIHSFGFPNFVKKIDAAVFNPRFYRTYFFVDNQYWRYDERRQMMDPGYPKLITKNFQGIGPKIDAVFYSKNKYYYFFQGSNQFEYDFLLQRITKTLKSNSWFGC
The target in another series is T5, Interstitial collagenase (Homo sapiens, UniProt P03956).
T5 sequence (P03956 whole entry): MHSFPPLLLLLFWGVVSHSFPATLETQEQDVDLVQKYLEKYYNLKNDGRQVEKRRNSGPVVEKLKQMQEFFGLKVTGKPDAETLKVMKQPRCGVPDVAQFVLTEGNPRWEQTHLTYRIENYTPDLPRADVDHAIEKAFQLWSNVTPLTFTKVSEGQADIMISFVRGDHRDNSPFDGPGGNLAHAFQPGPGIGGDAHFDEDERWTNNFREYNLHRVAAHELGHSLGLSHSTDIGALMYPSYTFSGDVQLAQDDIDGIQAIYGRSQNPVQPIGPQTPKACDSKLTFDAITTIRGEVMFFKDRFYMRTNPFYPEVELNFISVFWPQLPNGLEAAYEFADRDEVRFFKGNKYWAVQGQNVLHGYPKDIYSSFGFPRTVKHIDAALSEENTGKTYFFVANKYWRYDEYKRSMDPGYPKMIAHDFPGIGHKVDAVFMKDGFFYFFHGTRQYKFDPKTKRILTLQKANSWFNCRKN
The experiment in a line: Inhibition of human MMP-1.

The target in the next series is Collagenase 3 (Homo sapiens, UniProt P45452). Briefly: Inhibition of human MMP-13.
In series [15] the target is T6, Matrix metalloproteinase-9 (Homo sapiens, UniProt P14780). Briefly: Inhibition of human MMP-9.
In the next series the target is T7, Matrilysin (Homo sapiens, UniProt P09237).
T7 sequence (P09237 whole entry): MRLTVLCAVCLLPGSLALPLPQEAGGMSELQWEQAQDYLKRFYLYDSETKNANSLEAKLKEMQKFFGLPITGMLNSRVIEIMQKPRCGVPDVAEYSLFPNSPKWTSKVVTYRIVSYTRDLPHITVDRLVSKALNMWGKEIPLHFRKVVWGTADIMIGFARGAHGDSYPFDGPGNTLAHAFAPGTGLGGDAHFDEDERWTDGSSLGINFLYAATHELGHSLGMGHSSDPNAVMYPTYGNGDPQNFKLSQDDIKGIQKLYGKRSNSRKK
The experiment in a line: Inhibition of human MMP-7.

In series [16] the target is T4, Macrophage metalloelastase. The experiment in a line: Inhibition of human MMP-12 relative to control. On the set-up: concentration or dose not given beside the values. The conditions noted are these: concentration not given here.
Target sequence in this assay (P39900 106-470 limits assumed): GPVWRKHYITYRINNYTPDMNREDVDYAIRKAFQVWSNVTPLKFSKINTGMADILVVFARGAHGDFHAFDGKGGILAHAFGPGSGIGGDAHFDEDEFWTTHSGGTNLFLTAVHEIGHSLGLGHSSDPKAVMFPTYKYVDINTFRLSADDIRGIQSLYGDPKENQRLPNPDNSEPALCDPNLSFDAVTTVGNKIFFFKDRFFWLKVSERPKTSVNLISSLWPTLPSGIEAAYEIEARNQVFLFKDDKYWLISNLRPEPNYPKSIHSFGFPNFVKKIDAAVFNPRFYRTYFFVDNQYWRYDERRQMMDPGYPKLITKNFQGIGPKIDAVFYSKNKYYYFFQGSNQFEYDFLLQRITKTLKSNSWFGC
Series [17] deals with T6, Matrix metalloproteinase-9. The experiment in a line: Inhibition of human MMP-9 at 100 uM relative to control.
The target of the next series is Acetylcholinesterase (Electrophorus electricus, UniProt O42275). Briefly: Inhibition of Electrophorus electricus AChE.
Series [18] is described as follows: Antioxidant activity assessed as DPPH radical scavenging activity. Type of series: functional. In general terms: Loss of DPPH colour is used to gauge radical scavenging.
In series [19] the target is T2, Stromelysin-1. The experiment in a line: Inhibition of MMP-3 (unknown origin) by Colorimetric assay.
Target sequence in this assay (P08254 whole entry): as the sequence (P08254 whole entry) above
Series [20] deals with T2, Stromelysin-1. Briefly: Inhibition of MMP-3 (unknown origin) by fluorescence based assay.
Target sequence in this assay (P08254 whole entry): as above

pEC50, pIC50, pKi: −log10 of the molar value.

T6 sequence (P14780 whole entry): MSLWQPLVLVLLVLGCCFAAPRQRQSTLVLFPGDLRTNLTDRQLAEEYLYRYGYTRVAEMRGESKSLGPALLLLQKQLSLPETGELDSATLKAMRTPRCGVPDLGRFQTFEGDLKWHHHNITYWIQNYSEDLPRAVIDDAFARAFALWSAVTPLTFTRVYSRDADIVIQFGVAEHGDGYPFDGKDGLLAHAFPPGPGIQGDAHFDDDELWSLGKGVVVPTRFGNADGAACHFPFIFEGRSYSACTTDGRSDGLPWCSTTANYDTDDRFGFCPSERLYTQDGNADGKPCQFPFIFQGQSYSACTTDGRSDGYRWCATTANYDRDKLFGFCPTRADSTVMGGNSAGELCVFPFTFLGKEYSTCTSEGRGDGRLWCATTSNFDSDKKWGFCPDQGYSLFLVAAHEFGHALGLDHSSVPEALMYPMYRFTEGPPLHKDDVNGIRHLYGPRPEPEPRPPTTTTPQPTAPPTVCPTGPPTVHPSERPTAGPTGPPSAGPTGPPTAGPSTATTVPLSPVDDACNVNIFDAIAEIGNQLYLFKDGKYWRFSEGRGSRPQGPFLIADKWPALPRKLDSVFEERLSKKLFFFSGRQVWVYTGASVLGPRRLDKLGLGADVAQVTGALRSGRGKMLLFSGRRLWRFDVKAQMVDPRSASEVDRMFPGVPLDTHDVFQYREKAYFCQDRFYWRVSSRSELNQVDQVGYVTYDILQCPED
Chain of Acetylcholinesterase (O42275 whole entry): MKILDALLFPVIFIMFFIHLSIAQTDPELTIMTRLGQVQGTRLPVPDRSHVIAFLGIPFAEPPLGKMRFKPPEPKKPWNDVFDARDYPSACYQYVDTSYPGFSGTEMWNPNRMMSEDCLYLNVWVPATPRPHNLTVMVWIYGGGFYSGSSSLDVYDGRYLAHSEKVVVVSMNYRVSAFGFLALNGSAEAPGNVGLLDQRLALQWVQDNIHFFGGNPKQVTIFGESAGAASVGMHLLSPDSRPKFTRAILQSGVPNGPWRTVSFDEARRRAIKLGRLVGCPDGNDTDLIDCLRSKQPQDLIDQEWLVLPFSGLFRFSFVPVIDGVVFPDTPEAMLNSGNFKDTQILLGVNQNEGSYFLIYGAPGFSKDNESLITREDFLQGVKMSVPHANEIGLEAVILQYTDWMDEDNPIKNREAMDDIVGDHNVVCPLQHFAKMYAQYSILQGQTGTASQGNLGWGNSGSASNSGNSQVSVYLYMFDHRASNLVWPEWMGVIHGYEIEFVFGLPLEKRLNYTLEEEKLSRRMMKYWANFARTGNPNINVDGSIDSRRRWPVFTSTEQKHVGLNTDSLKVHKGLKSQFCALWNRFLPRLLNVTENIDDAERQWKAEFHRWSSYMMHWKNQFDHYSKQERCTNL
Chain of Neutrophil collagenase (P22894 whole entry): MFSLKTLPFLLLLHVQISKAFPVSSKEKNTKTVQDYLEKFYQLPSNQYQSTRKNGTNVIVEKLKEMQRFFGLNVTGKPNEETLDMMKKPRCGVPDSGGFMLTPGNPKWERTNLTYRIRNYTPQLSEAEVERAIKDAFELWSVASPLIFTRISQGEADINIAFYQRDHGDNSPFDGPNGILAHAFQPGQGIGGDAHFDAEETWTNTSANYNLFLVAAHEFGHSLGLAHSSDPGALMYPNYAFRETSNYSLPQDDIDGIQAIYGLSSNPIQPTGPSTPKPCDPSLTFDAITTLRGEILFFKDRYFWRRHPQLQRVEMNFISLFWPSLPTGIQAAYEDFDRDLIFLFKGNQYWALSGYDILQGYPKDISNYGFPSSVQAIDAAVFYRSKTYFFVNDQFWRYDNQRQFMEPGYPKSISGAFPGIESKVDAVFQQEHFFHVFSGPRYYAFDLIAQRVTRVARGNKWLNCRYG

Take `Cc1c(O)c(=S)ccn1C`: in [1], the inhibition (commonly the drop in the measured response relative to a control, in per cent) turned out to be 90%.
Consider `O=C(O)c1cccc(=S)n1O`, for which the pKi – broadly, the Ki on a negative log10 scale, so that one unit is a factor of ten – in series [2] was 7.89. The selectivity ratio in series [3] amounted to 8800. Moreover, the inhibition in the series on Pseudomonas aeruginosa came to 98%.
Turning to `Cc1c(O)c(=O)ccn1C`, the inhibition in the series on Glycine max amounted to 70%; in series [4] (concentration not given here), 2%.
With `Cc1occ(O)c(=O)c1C(=O)NCc1ccc(-c2ccccc2)cc1`, the inhibition (against Stromelysin-1 [5]; in [6]) was 21% throughout.
On to `S=c1cc[nH]c2[nH]cnc12`, for which, in series [1], the inhibition came out at 90%.
For the molecule `CCCCCCO/N=C/c1cc(=O)c(O)c[nH]1`, the Ki on Mushroom tyrosinase [7] and on Mushroom tyrosinase [11] was 24.84 µM throughout. The Kis in series [8] and in [4] was 18.1 µM each time. For the same molecule, the values for the IC50 at Mushroom tyrosinase [9] and at Mushroom tyrosinase [10] were 2.04 µM and 13.89 µM, respectively.
On to `Cn1cc(O)c(=O)cc1/C=C/C(=O)c1ccc(F)cc1`, for which the IC50 (usually the midpoint of a concentration-inhibition curve) against Mushroom tyrosinase [9] worked out at 3.07 µM; against Mushroom tyrosinase [10], 17.05 µM.
In series [12], `On1cc2ccccc2cc1=S` returned an inhibition greater than 90%.
Regarding `O=C(NCc1ccc(-c2ccccc2)cc1)c1occc(=O)c1O`, the pIC50 (in general, −log10 of the IC50, conventionally taken in molar units) at Neutrophil collagenase is 7.74; against Stromelysin-1 [13], 7.11; in series [14], 7.74; against Interstitial collagenase it was 4.60; on Collagenase 3 it was 5.40; in [15], 4.60. At Matrilysin, this molecule showed a pIC50 of 4.60.
As for `COc1ccc(C(=O)/C=C/c2cc(=O)c(O)c[nH]2)cc1OC`, the figures for the IC50 on Mushroom tyrosinase [9] and against Mushroom tyrosinase [10] were 2.75 µM and 19.3 µM, respectively.
`CCCCCCCCn1ccc(=O)c(O)c1C`: the inhibition in the series on Glycine max turned out to be 40%.
Turning to `[O-][n+]1ccccc1S`, in series [2], the pIC50 is 6.04 and the pKi was 6.66.
`On1ccc2ccccc2c1=S`: the inhibition is 90% in series [1] and 93% in series [16].
For the molecule `Cc1occ(O)c(=S)c1C(=O)NCc1ccc(-c2ccccc2)cc1`, the inhibition in [17] stood at 54%.
As for `Oc1coccc1=S`, the inhibition is 90% in series [1], greater than 90% in [12] and 93% in series [16].
As for `Cc1c(OCc2ccccc2)c(=O)ccn1CCCC(=O)Nc1ccc(Cc2nc3ccccc3s2)cc1`, the pIC50 against Acetylcholinesterase is 4.83.
On to `Cc1c(O)c(=O)ccn1CCCC(=O)N1CCCC1c1nc2ccccc2s1` (stereo not given), for which, in series [18], the pEC50 (usually −log10 of the EC50, conventionally taken in molar units) was 3.61.
Take `[O-][n+]1ccccc1S` [PYRITHIONE]: the pIC50 at Stromelysin-1 [19] was 4.70; against Stromelysin-1 [20] it was 4.46.

The values above are taken from ChEMBL document CHEMBL5241119, “Hydroxypyrone derivatives in drug discovery: from chelation therapy to rational design of metalloenzyme inhibitors” (RSC Med Chem, 2022).
